Inconclusive results and toxic doses are left out.
Test system: BDF1 mice, P388 leukemia ip, median survival T/C
Experiment: NCI In Vivo Anticancer Drug Screen. Data for tumor model P388 Leukemia (intraperitoneal) in B6D2F1 (BDF1) mice
Conditions: endpoint: median survival time, higher = longer survival
Method in brief: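 Steps: implant the tumour, treat one group with compound and another with vehicle, record survival, then divide treated by control.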

[1] = dose: 200.0 mg/kg/injection, schedule: Q04DX003 (ip), vehicle: Klucel (hydroxypropylcellulose) (HPC)
[2] = dose: 100.0 mg/kg/injection, schedule: Q01DX009 (ip), vehicle: saline with Tween-80
[3] = dose: 3.0 mg/kg/injection, schedule: Q01DX009 (ip), vehicle: Klucel (hydroxypropylcellulose) (HPC)
[4] = dose: 6.0 mg/kg/injection, schedule: Q01DX009 (ip), vehicle: Klucel (hydroxypropylcellulose) (HPC)
[5] = dose: 100.0 mg/kg/injection, schedule: Q04DX003 (ip), vehicle: Klucel (hydroxypropylcellulose) (HPC)
[6] = dose: 400.0 mg/kg/injection, schedule: Q04DX003 (ip), vehicle: Klucel (hydroxypropylcellulose) (HPC)
[7] = dose: 200.0 mg/kg/injection, schedule: Q01DX009 (ip), vehicle: Klucel (hydroxypropylcellulose) (HPC)
[8] = dose: 400.0 mg/kg/injection, schedule: Q01DX009 (ip), vehicle: Klucel (hydroxypropylcellulose) (HPC)
[9] = dose: 50.0 mg/kg/injection, schedule: Q01DX009 (ip), vehicle: saline with Tween-80

`Cc1ncc(-c2ccc([N+](=O)[O-])cc2)o1` was tested, and the T/C (dose: 12.5 mg/kg/injection, schedule: Q01DX009 (ip), vehicle: Klucel (hydroxypropylcellulose) (HPC)) was 87 % of control, the T/C (dose: 12.5 mg/kg/injection, schedule: Q04DX003 (ip), vehicle: Klucel (hydroxypropylcellulose) (HPC)) was 96 % of control and the T/C (dose: 25.0 mg/kg/injection, schedule: Q01DX009 (ip), vehicle: Klucel (hydroxypropylcellulose) (HPC)) was 91 % of control. For the same molecule, the T/C (dose: 25.0 mg/kg/injection, schedule: Q04DX003 (ip), vehicle: Klucel (hydroxypropylcellulose) (HPC)) was 92 % of control, the T/C (dose: 50.0 mg/kg/injection, schedule: Q01DX009 (ip), vehicle: Klucel (hydroxypropylcellulose) (HPC)) was 91 % of control and the T/C (dose: 50.0 mg/kg/injection, schedule: Q04DX003 (ip), vehicle: Klucel (hydroxypropylcellulose) (HPC)) was 103 % of control. The T/C [1] was 92 % of control.
`CC(=O)OC(C(=O)N(c1ccccc1)c1ccccc1)c1ccccc1` (centres undefined) was tested, and the T/C [2] was 92 % of control and the T/C (dose: 400.0 mg/kg/injection, schedule: Q01DX009 (ip), vehicle: saline with Tween-80) was 96 % of control.
With `CCCCCc1ccc2oc(=O)c3ccc(C)cc3c2c1O` the T/C (dose: 1.5 mg/kg/injection, schedule: Q01DX009 (ip), vehicle: Klucel (hydroxypropylcellulose) (HPC)) was 95 % of control, the T/C [3] was 104 % of control and the T/C [4] was 104 % of control. For the same molecule, the T/C (dose: 6.25 mg/kg/injection, schedule: Q01DX009 (ip), vehicle: Klucel (hydroxypropylcellulose) (HPC)) was 92 % of control, the T/C [5] was 100 % of control and the T/C [1] was 100 % of control. For the same molecule, the T/C [6] was 95 % of control.
In the case of `CCC1SC(=S)N(c2ccc(S(N)(=O)=O)cc2)C1=O` (centres undefined), the T/C (dose: 33.75 mg/kg/injection, schedule: Q01DX009 (ip), vehicle: saline with Tween-80) is reported as 96 % of control, the T/C (dose: 67.5 mg/kg/injection, schedule: Q01DX009 (ip), vehicle: saline with Tween-80) is reported as 97 % of control and the T/C (dose: 135.0 mg/kg/injection, schedule: Q01DX009 (ip), vehicle: saline with Tween-80) is reported as 97 % of control.
`CC(C(=O)O)N1C(=O)c2ccccc2C1=O` (centres undefined) was tested, and the T/C (dose: 100.0 mg/kg/injection, schedule: Q01DX009 (ip), vehicle: Klucel (hydroxypropylcellulose) (HPC)) was 109 % of control, the T/C [5] was 100 % of control and the T/C [7] was 109 % of control. For the same molecule, the T/C [1] was 104 % of control, the T/C [8] was 118 % of control and the T/C [6] was 100 % of control.
In the case of `Cc1cc(C)cc(C(C)C)c1`, the T/C [9] is reported as 101 % of control, the T/C [2] is reported as 116 % of control and the T/C (dose: 200.0 mg/kg/injection, schedule: Q01DX009 (ip), vehicle: saline with Tween-80) is reported as 122 % of control.
With `COc1cc([C@@H]2c3cc4c(cc3[C@H](OC(C)=O)[C@H]3COC(=O)[C@@H]23)OCO4)cc(OC)c1OC` the T/C (dose: 25.0 mg/kg/injection, schedule: Q01DX010 (ip), vehicle: carboxymethylcellulose (CMC)) was 123 % of control, the T/C [9] was 172 % of control and the T/C (dose: 50.0 mg/kg/injection, schedule: Q01DX010 (ip), vehicle: carboxymethylcellulose (CMC)) was 95 % of control. For the same molecule, the T/C (dose: 50.0 mg/kg/injection, schedule: Q04DX003 (ip), vehicle: saline sonified) was 100 % of control, the T/C (dose: 66.0 mg/kg/injection, schedule: Q04DX003 (ip), vehicle: saline sonified) was 88 % of control and the T/C (dose: 88.0 mg/kg/injection, schedule: Q04DX003 (ip), vehicle: saline with Tween-80) was 113 % of control. The T/C (dose: 100.0 mg/kg/injection, schedule: Q04DX003 (ip), vehicle: saline sonified) was 100 % of control, the T/C (dose: 132.0 mg/kg/injection, schedule: Q04DX003 (ip), vehicle: saline with Tween-80) was 150 % of control and the T/C (dose: 150.0 mg/kg/injection, schedule: Q04DX003 (ip), vehicle: saline sonified) was 100 % of control. For the same molecule, the T/C (dose: 200.0 mg/kg/injection, schedule: Q04DX003 (ip), vehicle: saline sonified) was 170 % of control and the T/C (dose: 200.0 mg/kg/injection, schedule: Q04DX003 (ip), vehicle: saline with Tween-80) was 160 % of control.
With `CCOP(=S)(OCC)OP(=S)(OCC)OCC` the T/C (dose: 1.0 mg/kg/injection, schedule: Q04DX003 (ip), vehicle: other) was 111 % of control, the T/C (dose: 2.0 mg/kg/injection, schedule: Q04DX003 (ip), vehicle: other) was 106 % of control and the T/C (dose: 4.0 mg/kg/injection, schedule: Q04DX003 (ip), vehicle: other) was 106 % of control.
With `CC1=CC=CC(C)(Cc2ccc(-c3ccc(CC4(C)C=CC=C(C)C4=O)cc3)cc2)C1=O` (centres undefined) the T/C (dose: 25.0 mg/kg/injection, schedule: Q01DX001 (ip), vehicle: saline with Tween-80) was 95 % of control, the T/C (dose: 50.0 mg/kg/injection, schedule: Q01DX001 (ip), vehicle: saline with Tween-80) was 95 % of control and the T/C (dose: 100.0 mg/kg/injection, schedule: Q01DX001 (ip), vehicle: saline with Tween-80) was 90 % of control.
With `CN1CCN(Cc2nc3cccc4c3c([n+]2[O-])-c2ccccc2-4)CC1` the T/C (dose: 40.0 mg/kg/injection, schedule: Q06HX032 (ip), vehicle: saline with Tween-80) was 100 % of control, the T/C (dose: 50.0 mg/kg/injection, schedule: Q03HX008 (ip), vehicle: saline with Tween-80) was 107 % of control and the T/C (dose: 50.0 mg/kg/injection, schedule: Q03HX024 (ip), vehicle: saline with Tween-80) was 109 % of control. For the same molecule, the T/C (dose: 80.0 mg/kg/injection, schedule: Q01DX009 (ip), vehicle: saline with Tween-80) was 118 % of control, the T/C (dose: 80.0 mg/kg/injection, schedule: Q03HX008 (ip), vehicle: saline with Tween-80) was 120 % of control and the T/C (dose: 100.0 mg/kg/injection, schedule: Q01DX009 (ip), vehicle: saline) was 158 % of control. The T/C (dose: 100.0 mg/kg/injection, schedule: Q01DX009 (oral), vehicle: saline with Tween-80) was 107 % of control, the T/C (dose: 100.0 mg/kg/injection, schedule: Q01DX Z (ip), vehicle: saline) was 159 % of control and the T/C (dose: 100.0 mg/kg/injection, schedule: Q03HX008 (oral), vehicle: saline with Tween-80) was 105 % of control. For the same molecule, the T/C (dose: 100.0 mg/kg/injection, schedule: Q03HX024 (ip), vehicle: saline with Tween-80) was 162 % of control, the T/C (dose: 100.0 mg/kg/injection, schedule: Q08HX009 (oral), vehicle: saline with Tween-80) was 100 % of control and the T/C (dose: 100.0 mg/kg/injection, schedule: Q08HX027 (oral), vehicle: saline with Tween-80) was 120 % of control. The T/C (dose: 150.0 mg/kg/injection, schedule: Q01DX009 (ip), vehicle: saline) was 150 % of control, the T/C (dose: 150.0 mg/kg/injection, schedule: Q01DX009 (oral), vehicle: saline with Tween-80) was 112 % of control and the T/C (dose: 150.0 mg/kg/injection, schedule: Q04DX003 (oral), vehicle: saline with Tween-80) was 99 % of control. For the same molecule, the T/C (dose: 150.0 mg/kg/injection, schedule: Q08HX009 (oral), vehicle: saline with Tween-80) was 112 % of control, the T/C (dose: 175.0 mg/kg/injection, schedule: Q08HX027 (oral), vehicle: saline with Tween-80) was 161 % of control and the T/C (dose: 200.0 mg/kg/injection, schedule: Q01DX009 (oral), vehicle: saline with Tween-80) was 110 % of control. For the same molecule, the T/C (dose: 200.0 mg/kg/injection, schedule: Q03HX024 (oral), vehicle: saline with Tween-80) was 152 % of control, the T/C (dose: 200.0 mg/kg/injection, schedule: Q04DX003 (oral), vehicle: saline with Tween-80) was 110 % of control and the T/C (dose: 200.0 mg/kg/injection, schedule: Q08HX009 (oral), vehicle: saline with Tween-80) was 103 % of control. The T/C (dose: 200.0 mg/kg/injection, schedule: Q08HX027 (oral), vehicle: saline with Tween-80) was 90 % of control, the T/C (dose: 250.0 mg/kg/injection, schedule: Q01DX009 (oral), vehicle: saline with Tween-80) was 117 % of control and the T/C (dose: 250.0 mg/kg/injection, schedule: Q04DX003 (oral), vehicle: saline with Tween-80) was 100 % of control. The T/C (dose: 250.0 mg/kg/injection, schedule: Q08HX009 (oral), vehicle: saline with Tween-80) was 116 % of control and the T/C (dose: 300.0 mg/kg/injection, schedule: Q04DX003 (oral), vehicle: saline with Tween-80) was 105 % of control.
In the case of `CCCCC(=O)c1cc(OC)cc(OC)c1`, the T/C [7] is reported as 100 % of control and the T/C [8] is reported as 91 % of control.
`Cc1ccc2c(c1)CC(C)([CH2][Hg][Cl])O2` (centres undefined) was tested, and the T/C [3] was 94 % of control, the T/C (dose: 3.0 mg/kg/injection, schedule: Q04DX003 (ip), vehicle: Klucel (hydroxypropylcellulose) (HPC)) was 103 % of control and the T/C [4] was 105 % of control. The T/C (dose: 6.0 mg/kg/injection, schedule: Q04DX003 (ip), vehicle: Klucel (hydroxypropylcellulose) (HPC)) was 94 % of control, the T/C (dose: 12.0 mg/kg/injection, schedule: Q01DX009 (ip), vehicle: Klucel (hydroxypropylcellulose) (HPC)) was 119 % of control and the T/C (dose: 12.0 mg/kg/injection, schedule: Q04DX003 (ip), vehicle: Klucel (hydroxypropylcellulose) (HPC)) was 100 % of control.

From PubChem BioAssay AID328 (DTP/NCI, 2004)
